target: EGFR (UniProt P00533)
Sequence (P00533 whole entry, looked up): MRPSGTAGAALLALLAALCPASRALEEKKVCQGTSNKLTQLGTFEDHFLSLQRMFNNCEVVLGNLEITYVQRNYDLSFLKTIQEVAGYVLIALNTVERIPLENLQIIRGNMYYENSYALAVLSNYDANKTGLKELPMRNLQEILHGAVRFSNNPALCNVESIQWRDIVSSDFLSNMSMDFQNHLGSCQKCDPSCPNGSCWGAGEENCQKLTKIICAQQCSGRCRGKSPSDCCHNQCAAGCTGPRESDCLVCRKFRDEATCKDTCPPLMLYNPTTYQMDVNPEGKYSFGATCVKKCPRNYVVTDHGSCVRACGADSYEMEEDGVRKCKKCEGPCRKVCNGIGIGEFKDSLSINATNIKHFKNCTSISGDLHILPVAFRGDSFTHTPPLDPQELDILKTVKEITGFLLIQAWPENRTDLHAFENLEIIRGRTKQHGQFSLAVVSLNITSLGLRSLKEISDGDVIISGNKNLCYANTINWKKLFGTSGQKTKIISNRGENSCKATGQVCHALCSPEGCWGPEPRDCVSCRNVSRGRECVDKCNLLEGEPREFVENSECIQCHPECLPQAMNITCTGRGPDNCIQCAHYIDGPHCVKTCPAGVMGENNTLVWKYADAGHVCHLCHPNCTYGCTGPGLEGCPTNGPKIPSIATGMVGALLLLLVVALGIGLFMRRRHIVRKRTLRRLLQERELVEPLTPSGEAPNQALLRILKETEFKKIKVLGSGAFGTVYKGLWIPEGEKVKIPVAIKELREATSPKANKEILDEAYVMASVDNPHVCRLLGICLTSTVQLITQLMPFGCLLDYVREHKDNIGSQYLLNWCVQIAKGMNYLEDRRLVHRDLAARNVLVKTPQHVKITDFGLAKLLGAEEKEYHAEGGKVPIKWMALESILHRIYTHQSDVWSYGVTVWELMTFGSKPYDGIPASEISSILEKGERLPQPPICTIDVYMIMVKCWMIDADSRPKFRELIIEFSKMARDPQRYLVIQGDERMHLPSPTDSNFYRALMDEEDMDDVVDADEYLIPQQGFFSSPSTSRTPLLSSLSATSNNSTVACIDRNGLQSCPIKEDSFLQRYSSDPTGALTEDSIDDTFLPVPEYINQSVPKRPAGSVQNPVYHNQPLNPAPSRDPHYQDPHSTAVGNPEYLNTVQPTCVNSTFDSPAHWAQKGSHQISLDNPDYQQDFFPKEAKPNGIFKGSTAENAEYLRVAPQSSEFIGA

SMILES	IC50 [nM]
COc1cc2c(Nc3ccc(Cl)c(Cl)c3)ncnc2cc1OCC1CN(S(=O)(=O)c2ccc(F)cc2)CCO1 (stereo unspecified)	< 50
COc1cc2c(Nc3ccc(Cl)c(Cl)c3)ncnc2cc1OCC1CN(C(C)C)CCCO1 (stereo unspecified)	< 50
COc1cc2c(Nc3ccc(Cl)c(Cl)c3)ncnc2cc1OCC1CN(S(=O)(=O)c2ccccc2)CCO1 (stereo unspecified)	< 50
COc1cc2c(Nc3ccc(Br)c(Cl)c3Cl)ncnc2cc1OCC1CN(C)CCO1 (stereo unspecified)	< 50
COc1cc2c(Nc3cc(Cl)c(Br)cc3F)ncnc2cc1OC[C@@H]1CN2CCOC[C@H]2CO1	< 50
COc1cc2c(Nc3cc(F)cc(F)c3)ncnc2cc1O[C@@H]1CO[C@@H]2[C@H]1OC[C@H]2F	< 50
COc1cc2c(Nc3ccc(Cl)c(Cl)c3)ncnc2cc1OCC1CN(Cc2ccc(F)cc2)CCO1 (stereo unspecified)	< 50
COc1cc2c(Nc3ccc(Cl)c(Cl)c3)ncnc2cc1OCc1noc(C2CCCN2C)n1 (stereo unspecified)	< 50
COc1cc2c(Nc3ccc(Br)c(Cl)c3)ncnc2cc1O[C@H]1CO[C@@H]2[C@H]1OC[C@@H]2N1CCCC1	< 50
COc1cc2c(Nc3ccc(Cl)c(Cl)c3)ncnc2cc1OCc1nc([C@@H]2CCCN2)no1	< 50
COc1cc2c(Nc3ccc(Cl)c(Cl)c3)ncnc2cc1OC[C@@H]1O[C@@H](OC)[C@@H](O)[C@@H](O)[C@H]1O	< 50
COc1cc2c(Nc3cccc(Br)c3C)ncnc2cc1OCC1CN(C)CCO1 (stereo unspecified)	< 50
COc1cc2c(Nc3ccc(Cl)c(Cl)c3)ncnc2cc1OCc1c(F)cccc1F	< 50
COc1cc2c(Nc3cccc(Br)c3C)ncnc2cc1O[C@H]1CO[C@H]2[C@@H]1OC[C@@H]2OC	< 50
COc1cc2c(Nc3ccc(Cl)cc3F)ncnc2cc1O[C@@H]1CO[C@@H]2[C@H]1OC[C@H]2F	< 50
COc1cc2c(Nc3ccc(Br)c(C)c3)ncnc2cc1OCC1CN(C)CCO1 (stereo unspecified)	< 50
COc1cc2c(Nc3cc(Cl)c(Cl)cc3F)ncnc2cc1OCC1CN(C)C(C)(C)CO1 (stereo unspecified)	< 50
COc1cc2c(Nc3ccc(Br)c(Cl)c3)ncnc2cc1O[C@H]1CO[C@@H]2[C@H]1OC[C@@H]2N(C)C	< 50
COc1cc2c(Nc3ccccc3F)ncnc2cc1O[C@@H]1CO[C@@H]2[C@H]1OC[C@H]2F	< 50
CCN1CCCCC1c1nc(COc2cc3ncnc(Nc4ccc(Cl)c(Cl)c4)c3cc2OC)cs1 (stereo unspecified)	< 50

SMILES	IC50 [nM]
COc1cc2c(Nc3ccc(Cl)c(Cl)c3)ncnc2cc1OC1CCCC1	< 50
COc1cc2c(Nc3cc(Cl)c(Cl)cc3F)ncnc2cc1O[C@H]1CO[C@H]2[C@@H]1OC[C@@H]2OC	< 50
COc1cc2c(Nc3ccc(Cl)c(Cl)c3)ncnc2cc1OCc1nc(CN2CCOCC2)cs1	< 50
COc1cc2c(Nc3ccc(Cl)c(Cl)c3)ncnc2cc1OCc1csc(C2CCN(C)CC2)n1	< 50
COc1ccc(-c2nc(COc3cc4ncnc(Nc5ccc(Cl)c(Cl)c5)c4cc3OC)no2)cc1	< 50
COc1cc2c(Nc3ccc(Cl)c(Cl)c3)ncnc2cc1OCc1nc(-c2ccc(O)c(C(N)=O)c2)cs1	< 50
COc1cc2c(Nc3ccc(Cl)c(Cl)c3)ncnc2cc1OCc1noc(C2CCCN2)n1 (stereo unspecified)	< 50
COc1cc2c(Nc3ccc(Cl)c(Cl)c3)ncnc2cc1OCc1nc(N2CCN(C)CC2)no1	< 50
COc1cc2c(Nc3ccc(Cl)c(Cl)c3)ncnc2cc1OCC1CN(CCO)CCO1 (stereo unspecified)	< 50
COc1cc2c(Nc3ccc(Cl)c(Cl)c3)ncnc2cc1OCC1CN(C(C)=N)CCCO1 (stereo unspecified)	< 50
COc1cc2c(Nc3ccc(Cl)c(C(F)(F)F)c3)ncnc2cc1O[C@@H]1CO[C@@H]2[C@H]1OC[C@H]2F	< 50
COc1cc2c(Nc3ccc(Br)c(Cl)c3)ncnc2cc1OCC1CN(C)CCO1 (stereo unspecified)	< 50
COc1cc2c(Nc3ccc(Cl)c(Cl)c3)ncnc2cc1OCc1csc([C@@H]2CCCN2C)n1	< 50
COc1cc2c(Nc3ccc(Br)c(Cl)c3F)ncnc2cc1O[C@@H]1CO[C@@H]2[C@H]1OC[C@H]2F	< 50
CCCCCCCCN1CCOC(COc2cc3ncnc(Nc4ccc(Cl)c(Cl)c4)c3cc2OC)C1 (stereo unspecified)	< 50
CCC(CC)CN1CCCOC(COc2cc3ncnc(Nc4ccc(Cl)c(Cl)c4)c3cc2OC)C1 (stereo unspecified)	< 50
COc1cc2c(Nc3ccc(Cl)cc3Cl)ncnc2cc1O[C@@H]1CO[C@@H]2[C@H]1OC[C@H]2F	< 50
COc1cc2c(Nc3ccc(Cl)c(Cl)c3)ncnc2cc1OCC1CN(C(N)=NC#N)CCCO1 (stereo unspecified)	< 50
COc1cc2c(Nc3ccc(Br)c(Cl)c3F)ncnc2cc1OCC1CO[C@@H]2[C@@H](OC)CO[C@H]12 (stereo partly specified)	< 50
COc1cc2c(Nc3ccc(F)c(Cl)c3F)ncnc2cc1O[C@@H]1CO[C@@H]2[C@H]1OC[C@H]2F	< 50

SMILES	IC50 [nM]
COc1cc2c(Nc3cc(F)c(Br)cc3F)ncnc2cc1OCC1CN(C)CCO1 (stereo unspecified)	< 50
COc1cc2c(Nc3ccc(Cl)c(Cl)c3)ncnc2cc1OCC1CN(C(=O)c2ccc(Cl)nc2)CCO1 (stereo unspecified)	< 50
COc1cc2c(Nc3ccc(Br)c(Cl)c3)ncnc2cc1O[C@H]1CO[C@@H]2[C@H]1OC[C@@H]2N1CCOCC1	< 50
COc1cc2c(Nc3ccc(Br)c(Cl)c3)ncnc2cc1OC1CCN(C)C1 (stereo unspecified)	< 50
COc1cc2c(Nc3cccc(Cl)c3F)ncnc2cc1O[C@H]1CO[C@H]2[C@@H]1OC[C@@H]2OC	< 50
COc1cc2c(Nc3ccc(Cl)c(Cl)c3)ncnc2cc1OCC1CN(C(=NC#N)N2CCCCC2)CCO1 (stereo unspecified)	< 50
COc1cc2c(Nc3ccc(Cl)c(Cl)c3)ncnc2cc1OCCC1CN(C(=O)OC(C)(C)C)C(C)(C)CO1 (stereo unspecified)	< 50
COc1cc2c(Nc3ccc(Br)c(Cl)c3)ncnc2cc1O[C@@H]1CO[C@@H]2[C@H]1OC[C@@H]2O	< 50
C=CCCCN1CCOC(COc2cc3ncnc(Nc4ccc(Cl)c(Cl)c4)c3cc2OC)C1 (stereo unspecified)	< 50
COc1cc2c(Nc3cccc(Br)c3Cl)ncnc2cc1OCC1CN(C)CCO1 (stereo unspecified)	< 50
COc1cc2c(Nc3ccc(Cl)c(Cl)c3)ncnc2cc1OCC1CN(CC2CCCCO2)CCO1 (stereo unspecified)	< 50
COc1cc2c(Nc3ccc(N4CCN(C)CC4)cc3)ncnc2cc1O[C@H]1CO[C@@H]2[C@H]1OC[C@@H]2F	< 50
COc1cc2c(Nc3ccc(Cl)c(Cl)c3)ncnc2cc1OCc1nc2c(s1)CN(C)CC2	< 50
COc1cc2c(Nc3ccc(Cl)c(Cl)c3)ncnc2cc1OCC1CN(C(C)C)CCO1 (stereo unspecified)	< 50
COc1cc2c(Nc3ccc(Cl)c(Cl)c3)ncnc2cc1OCc1nc(-c2cccnc2)cs1	< 50
COc1cc2c(Nc3ccc(Br)c(Cl)c3)ncnc2cc1O[C@H]1COC[C@H]1OC	< 50
COc1cc2c(Nc3ccc(Cl)c(Cl)c3)ncnc2cc1OCC1CN(S(C)(=O)=O)CCO1 (stereo unspecified)	< 50
COc1cc2c(Nc3ccc(Cl)c(Cl)c3)ncnc2cc1OCc1cscn1	< 50
COc1cc2c(Nc3ccc(Cl)c(Cl)c3)ncnc2cc1OCc1noc(C2CCN(C(=O)OC(C)(C)C)CC2)n1	< 50
CCCC(C)C(=O)N1CCOC(COc2cc3ncnc(Nc4ccc(Cl)c(Cl)c4)c3cc2OC)C1 (stereo unspecified)	< 50

The next lines start with the values.

IC50 [nM]	SMILES
< 50	COC(=O)CCC(=O)N1CCOC(COc2cc3ncnc(Nc4ccc(Cl)c(Cl)c4)c3cc2OC)C1 (stereo unspecified)
< 50	COc1cc2c(Nc3ccc(Cl)c(Cl)c3)ncnc2cc1OC[C@H]1CN2CCC[C@H]2CO1
< 50	COc1cc2c(Nc3ccc(Cl)c(Cl)c3)ncnc2cc1OCCC1OCCO1
< 50	COc1cc2c(Nc3ccc(Cl)c(Cl)c3)ncnc2cc1OCC1CN(C(=O)CCC(C)C)CCO1 (stereo unspecified)
< 50	COc1cc2c(Nc3ccc(Cl)c(Cl)c3F)ncnc2cc1OC[C@H]1CN2CCOC[C@H]2CO1
< 50	COc1cc2c(Nc3cccc(Cl)c3F)ncnc2cc1O[C@@H]1CO[C@@H]2[C@H]1OC[C@H]2F
< 50	COc1cc2c(Nc3ccc(Br)c(Cl)c3)ncnc2cc1O[C@H]1CO[C@H]2[C@@H]1OCC21OCCO1
< 50	CCS(=O)(=O)N1CCOC(COc2cc3ncnc(Nc4ccc(Cl)c(Cl)c4)c3cc2OC)C1 (stereo unspecified)
< 50	COc1cc2c(Nc3ccc(Cl)c(Cl)c3F)ncnc2cc1OC[C@@H]1CN2CCCC[C@@H]2C(=O)N1
< 50	COc1cc2c(Nc3ccc(Cl)c(Cl)c3)ncnc2cc1OCC1CN(C(=NC#N)N2CCCC2)CCO1 (stereo unspecified)
< 50	COc1cc2c(Nc3ccc(Cl)c(Cl)c3)ncnc2cc1OCC1CN(CCc2ccccc2)CCO1 (stereo unspecified)
< 50	COc1cc2c(Nc3ccc(Cl)c(Cl)c3)ncnc2cc1OCc1noc(-c2c(C)noc2C)n1
< 50	COc1cc2c(Nc3ccc(Br)c(Cl)c3)ncnc2cc1O[C@H]1CO[C@H]2[C@@H]1OC[C@@]21COC(C)(C)O1
< 50	COc1cc2c(Nc3ccc(Cl)c(Cl)c3)ncnc2cc1OCC1CN(CCC2CCCCC2)CCO1 (stereo unspecified)
< 50	COc1cc2c(Nc3ccc(Br)c(Cl)c3)ncnc2cc1O[C@@H]1CCOC1
< 50	CCCN1CCOC(COc2cc3ncnc(Nc4ccc(Cl)c(Cl)c4)c3cc2OC)C1 (stereo unspecified)

IC50 [nM]	SMILES
< 50	COc1cc2c(Nc3ccc(Cl)c(Cl)c3)ncnc2cc1OCC1CN(CCC2CCCCC2)CCCO1 (stereo unspecified)
< 50	C=CCN1CCOC(COc2cc3ncnc(Nc4ccc(Cl)c(Cl)c4)c3cc2OC)C1 (stereo unspecified)
< 50	COc1cc2c(Nc3ccc(Cl)c(Cl)c3F)ncnc2cc1OC[C@@H]1CN2CCC[C@H]2CO1
< 50	CCCCCCCN1CCOC(COc2cc3ncnc(Nc4ccc(Cl)c(Cl)c4)c3cc2OC)C1 (stereo unspecified)
< 50	COc1cc2c(Nc3ccc(F)cc3Cl)ncnc2cc1O[C@@H]1CO[C@@H]2[C@H]1OC[C@H]2F
< 50	COc1cc2c(Nc3ccc(Cl)c(Cl)c3F)ncnc2cc1OC[C@@H]1CN(C)CC(=O)N1
< 50	CCN1CCCC(c2nc(COc3cc4ncnc(Nc5ccc(Cl)c(Cl)c5)c4cc3OC)no2)C1 (stereo unspecified)
< 50	COc1cc2c(Nc3ccc(Cl)cc3Cl)ncnc2cc1OCC1CN(C)CCO1 (stereo unspecified)
< 50	COc1cc2c(Nc3ccc(Cl)c(Cl)c3)ncnc2cc1OCCN1C(=O)c2ccccc2C1=O
< 50	COc1cc2c(Nc3ccc(Br)c(Cl)c3)ncnc2cc1O[C@H]1CO[C@@H]2[C@H]1OC[C@@H]2N1CCN(C)CC1
< 50	COc1cc2c(Nc3ccc(Cl)c(Cl)c3)ncnc2cc1OCCC1CCCN1C (stereo unspecified)
< 50	COc1cc2c(Nc3ccc(Cl)c(Cl)c3)ncnc2cc1OCc1csc(C2CCCCN2C)n1 (stereo unspecified)
< 50	COc1cc2c(Nc3ccc(Br)c(Cl)c3)ncnc2cc1O[C@H]1CO[C@@H]2[C@H]1OC[C@@H]2OC(C)=O
< 50	COc1cc2c(Nc3cc(C)cc(C)c3)ncnc2cc1O[C@@H]1CO[C@@H]2[C@H]1OC[C@H]2F
< 50	COc1cc2c(Nc3ccc(Cl)c(Cl)c3)ncnc2cc1OC1C[C@@H]2CN(C)C[C@@H]2C1 (stereo partly specified)

Reference: the Kinase Knowledgebase extract (Sharma et al. 2016)
